The record followed here is PMC11208742, “5,7,4′‐Trimethoxyflavone triggers cancer cell PD‐L1 ubiquitin–proteasome degradation and facilitates antitumor immunity by targeting HRD1” (MedComm, 2024).

In the experiment the target is T1, HRD1 (HMG-CoA reductase degradation protein 1) (Homo sapiens, UniProt Q86TM6).
T1 construct: gene SYVN1; GFP-tagged wild-type HRD1 expressed in 293T cells, cell lysate (MST); endogenous untagged HRD1 in RKO cell lysate (CETSA)
Kind of experiment: microscale thermophoresis, GFP-HRD1. The class given is binding.

SMILES strings stand for the structures.

The term Kd denotes the constant that tells how readily two partners part at equilibrium.

T1 sequence (Q86TM6 whole entry): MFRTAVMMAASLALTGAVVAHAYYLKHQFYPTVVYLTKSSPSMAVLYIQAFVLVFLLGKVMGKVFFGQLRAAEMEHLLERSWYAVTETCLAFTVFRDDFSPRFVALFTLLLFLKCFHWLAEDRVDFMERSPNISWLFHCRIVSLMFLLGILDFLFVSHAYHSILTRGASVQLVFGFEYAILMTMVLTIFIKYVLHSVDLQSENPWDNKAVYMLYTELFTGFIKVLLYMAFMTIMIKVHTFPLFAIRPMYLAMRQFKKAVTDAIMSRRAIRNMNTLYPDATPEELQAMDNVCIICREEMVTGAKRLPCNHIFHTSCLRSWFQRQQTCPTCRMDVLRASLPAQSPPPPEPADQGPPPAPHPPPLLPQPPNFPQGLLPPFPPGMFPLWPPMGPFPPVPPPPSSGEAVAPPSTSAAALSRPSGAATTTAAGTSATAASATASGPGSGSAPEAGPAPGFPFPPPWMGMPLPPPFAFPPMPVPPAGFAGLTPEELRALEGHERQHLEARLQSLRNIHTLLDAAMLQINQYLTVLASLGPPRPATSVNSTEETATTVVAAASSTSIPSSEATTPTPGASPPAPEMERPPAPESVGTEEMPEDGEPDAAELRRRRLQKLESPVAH

In turn, `COc1ccc(-c2cc(=O)c3c(OC)cc(OC)cc3o2)cc1` [TF] gave an equilibrium dissociation constant (Kd) of 8.02 µM.
